# Laboratory results reported in patent US20260070945A1, “MACROCYCLIC IMMUNOMODULATORS” (Bristol-Myers Squibb Company, priority 2022, published 2026).
# Where a SMILES comes first, the peptide text is derived from it. Bridges are numbered along the chain shown (N, C = ends). [ ]: non-standard residue; d: D form. The star is where a group is joined. ξ: configuration not given here. Phe(4-COOH) = N[C@@H](Cc1ccc(C(=O)O)cc1)C(=O)O; Bip = N[C@@H](Cc1ccc(-c2ccccc2)cc1)C(=O)O; Phe(3-Me) = Cc1cccc(C[C@H](N)C(=O)O)c1; Val(3-OH) = CC(C)(O)[C@H](N)C(=O)O; 4Pal = N[C@@H](Cc1ccncc1)C(=O)O; 3Thi = N[C@@H](Cc1ccsc1)C(=O)O; Cha = N[C@@H](CC1CCCCC1)C(=O)O; Ile(3ξ) = CCC(C)[C@H](N)C(=O)O; Thr(3ξ) = CC(O)[C@H](N)C(=O)O; Carboxymethyl = O=C(O)C*; NMeA = CN[C@@H](C)C(=O)O; Orn = NCCC[C@H](N)C(=O)O; Aun = NCCCCCCCCCCC(=O)O; Dab = NCC[C@H](N)C(=O)O; AEEA = NCCOCCOCC(=O)O
# Molecular target: T1, PD-1/PD-L1 interaction (PE-labeled human PD-L1-Ig binding to Jurkat cell line over-expressing human PD-1) (Homo sapiens, UniProt Q15116)
# T1 construct: expressed in transfected cells; host or cells: Jurkat
# Assay: Jurkat-PD-1 Cell Binding High-Content Screening Assay (CBA)
# Conditions: PE-labeled PD-L1-Ig 20 nM final, Jurkat-hPD-1 cells; read-out: Jurkat HPD1 PDL1 IC50
# Procedure, shortened: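 Compound is added first to the PD-1-expressing Jurkat cells and held 2 h at 37 °C in serum-containing DMEM. The fluorescent PD-L1 fusion follows at 20 nM final for 1 h. Fixed, Hoechst-stained cells are then imaged for bound label.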
# T1 sequence (Q15116 25-288): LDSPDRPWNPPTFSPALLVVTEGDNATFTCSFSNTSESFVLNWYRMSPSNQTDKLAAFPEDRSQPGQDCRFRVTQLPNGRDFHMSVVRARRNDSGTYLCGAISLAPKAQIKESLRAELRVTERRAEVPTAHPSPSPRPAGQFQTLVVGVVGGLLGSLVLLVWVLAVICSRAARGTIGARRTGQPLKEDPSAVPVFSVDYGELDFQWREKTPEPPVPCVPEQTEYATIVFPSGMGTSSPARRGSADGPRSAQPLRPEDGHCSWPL
row,SMILES,IC50
1,Cc1cccc(C[C@@H]2NC(=O)[C@H](CC(=O)O)NC(=O)[C@H](Cc3ccc(C(=O)O)cc3)NC(=O)[C@H](C(C)O)NC(=O)CSC[C@@H](C(=O)N[C@@H](CCCN)C(=O)NCCOCCOCC(=O)NCCCCCCCCCCC(=O)O)NC(=O)[C@H](CCC(=O)O)NC(=O)[C@H](C(C)(C)O)NC(=O)[C@H](CC3CCCCC3)NC(=O)[C@H](CCN)NC(=O)[C@@H](CC(C)C)NC(=O)[C@H](C)N(C)C(=O)[C@H](Cc3ccc(C(=O)O)cc3)NC(=O)[C@H](Cc3ccc(-c4ccccc4)cc3)NC(=O)[C@H](Cc3ccc(C(=O)O)cc3)NC2=O)c1 (stereo partly drawn) [Example 2499] ({CH2CO}-[Thr(3ξ)][Phe(4-COOH)]D[Phe(3-Me)][Phe(4-COOH)][Bip][Phe(4-COOH)][NMeA][dL][Dab][Cha][Val(3-OH)]EC[Orn][AEEA][Aun]-OH; thioether N-14),78 nM
2,Cc1cccc(C[C@@H]2NC(=O)[C@H](CC(=O)O)NC(=O)[C@H](Cc3ccc(C(=O)O)cc3)NC(=O)[C@H](Cc3ccsc3)NC(=O)CSC[C@@H](C(=O)N[C@@H](CCN)C(=O)NCCOCCOCC(=O)NCCOCCOCC(=O)NCCCCCCCCCCC(=O)O)NC(=O)[C@H](CCC(=O)O)NC(=O)[C@H](C(C)(C)O)NC(=O)[C@H](CC3CCCCC3)NC(=O)[C@H](CCN)NC(=O)[C@@H](CC(C)C)NC(=O)[C@H](C)N(C)C(=O)[C@H](Cc3ccc(OCC(=O)O)cc3)NC(=O)[C@H](Cc3ccc(-c4ccccc4)cc3)NC(=O)[C@H](Cc3ccc(OCC(=O)O)cc3)NC2=O)c1 [Example 2500] ({CH2CO}-[3Thi][Phe(4-COOH)]D[Phe(3-Me)]Y(Carboxymethyl)[Bip]Y(Carboxymethyl)[NMeA][dL][Dab][Cha][Val(3-OH)]EC[Dab][AEEA][AEEA][Aun]-OH; thioether N-14),19.5 nM
3,Cc1cccc(C[C@@H]2NC(=O)[C@H](CC(=O)O)NC(=O)[C@H](Cc3ccc(OCC(=O)O)cc3)NC(=O)[C@H](Cc3ccncc3)NC(=O)CSC[C@@H](C(=O)N[C@@H](CCN)C(=O)NCCOCCOCC(=O)NCCOCCOCC(=O)NCCCCCCCCCCC(=O)O)NC(=O)[C@H](CCC(=O)O)NC(=O)[C@H](C(C)C)NC(=O)[C@H](CC3CCCCC3)NC(=O)[C@H](CCN)NC(=O)[C@@H](CC(C)C)NC(=O)[C@H](C)N(C)C(=O)[C@H](Cc3ccc(C(=O)O)cc3)NC(=O)[C@H](Cc3ccc(-c4ccccc4)cc3)NC(=O)[C@H](Cc3ccc(C(=O)O)cc3)NC2=O)c1 [Example 2501] ({CH2CO}-[4Pal]Y(Carboxymethyl)D[Phe(3-Me)][Phe(4-COOH)][Bip][Phe(4-COOH)][NMeA][dL][Dab][Cha]VEC[Dab][AEEA][AEEA][Aun]-OH; thioether N-14),253 nM
4,CCC(C)[C@@H]1NC(=O)[C@H](Cc2ccc(-c3ccccc3)cc2)NC(=O)[C@H](CC(C)C)NC(=O)[C@H](Cc2c[nH]c3ccccc23)NC(=O)[C@H](CC(=O)O)NC(=O)[C@H](Cc2ccc(OCC(=O)O)cc2)NC(=O)[C@H](Cc2ccncc2)NC(=O)CSC[C@@H](C(=O)N[C@@H](CCN)C(=O)NCCOCCOCC(=O)NCCCCCCCCCCC(=O)O)NC(=O)[C@H](CO)NC(=O)[C@H](C(C)(C)O)NC(=O)[C@H](CC2CCCCC2)NC(=O)[C@H](CCN)NC(=O)[C@@H](CC(C)C)NC(=O)[C@H](C)N(C)C1=O (stereo partly drawn) [Example 2502] ({CH2CO}-[4Pal]Y(Carboxymethyl)DWL[Bip][Ile(3ξ)][NMeA][dL][Dab][Cha][Val(3-OH)]SC[Dab][AEEA][Aun]-OH; thioether N-14),148 nM
5,CC(=O)NCCCC[C@@H]1NC(=O)[C@H](C(C)C)NC(=O)[C@H](CC2CCCCC2)NC(=O)[C@H](CCN)NC(=O)[C@@H](CC(C)C)NC(=O)[C@H](C)N(C)C(=O)[C@H](CCC(N)=O)NC(=O)[C@H](Cc2ccc(-c3ccccc3)cc2)NC(=O)[C@H](CC(C)C)NC(=O)[C@H](Cc2c[nH]c3ccccc23)NC(=O)[C@H](CC(=O)O)NC(=O)[C@H](Cc2ccc(OCC(=O)O)cc2)NC(=O)[C@H](Cc2ccsc2)NC(=O)CSC[C@@H](C(=O)N[C@@H](CCN)C(=O)NCCOCCOCC(=O)NCCCCCCCCCCC(=O)O)NC1=O [Example 2503] ({CH2CO}-[3Thi]Y(Carboxymethyl)DWL[Bip]Q[NMeA][dL][Dab][Cha]VK(Ac)C[Dab][AEEA][Aun]-OH; thioether N-14),12.2 nM
6,CC(C)C[C@@H]1NC(=O)[C@H](Cc2c[nH]c3ccccc23)NC(=O)[C@H](CC(=O)O)NC(=O)[C@H](Cc2ccc(OCC(=O)O)cc2)NC(=O)[C@H](Cc2ccsc2)NC(=O)CSC[C@@H](C(=O)N[C@@H](CCN)C(=O)NCCOCCOCC(=O)NCCCCCCCCCCC(=O)O)NC(=O)[C@H](CCC(=O)O)NC(=O)[C@H](C(C)(C)O)NC(=O)[C@H](CC2CCCCC2)NC(=O)[C@H](CCN)NC(=O)[C@@H](CC(C)C)NC(=O)[C@H](C)N(C)C(=O)[C@H](CCC(N)=O)NC(=O)[C@H](Cc2ccc(-c3ccccc3)cc2)NC1=O [Example 2504] ({CH2CO}-[3Thi]Y(Carboxymethyl)DWL[Bip]Q[NMeA][dL][Dab][Cha][Val(3-OH)]EC[Dab][AEEA][Aun]-OH; thioether N-14),13.2 nM
7,Cc1cccc(C[C@@H]2NC(=O)[C@H](CC(=O)O)NC(=O)[C@H](Cc3ccc(C(=O)O)cc3)NC(=O)[C@H](Cc3ccsc3)NC(=O)CSC[C@@H](C(=O)N[C@@H](CCN)C(=O)NCCOCCOCC(=O)NCCCCCCCCCCC(=O)O)NC(=O)[C@H](CCC(=O)O)NC(=O)[C@H](C(C)(C)O)NC(=O)[C@H](CC3CCCCC3)NC(=O)[C@H](CCN)NC(=O)[C@@H](CC(C)C)NC(=O)[C@H](C)N(C)C(=O)[C@H](Cc3ccc(OCC(=O)O)cc3)NC(=O)[C@H](Cc3ccc(-c4ccccc4)cc3)NC(=O)[C@H](Cc3ccc(OCC(=O)O)cc3)NC2=O)c1 [Example 2505] ({CH2CO}-[3Thi][Phe(4-COOH)]D[Phe(3-Me)]Y(Carboxymethyl)[Bip]Y(Carboxymethyl)[NMeA][dL][Dab][Cha][Val(3-OH)]EC[Dab][AEEA][Aun]-OH; thioether N-14),12.9 nM
8,Cc1cccc(C[C@@H]2NC(=O)[C@H](CC(=O)O)NC(=O)[C@H](Cc3ccc(C(=O)O)cc3)NC(=O)[C@H](Cc3ccsc3)NC(=O)CSC[C@@H](C(=O)N[C@@H](CCN)C(=O)NCCOCCOCC(=O)NCCCCCCCCCCC(=O)O)NC(=O)[C@H](CCC(=O)O)NC(=O)[C@H](C(C)(C)O)NC(=O)[C@H](CC3CCCCC3)NC(=O)[C@H](CCN)NC(=O)[C@@H](CC(C)C)NC(=O)[C@H](C)N(C)C(=O)[C@H](Cc3ccc(C(=O)O)cc3)NC(=O)[C@H](Cc3ccc(-c4ccccc4)cc3)NC(=O)[C@H](Cc3ccc(C(=O)O)cc3)NC2=O)c1 [Example 2506] ({CH2CO}-[3Thi][Phe(4-COOH)]D[Phe(3-Me)][Phe(4-COOH)][Bip][Phe(4-COOH)][NMeA][dL][Dab][Cha][Val(3-OH)]EC[Dab][AEEA][Aun]-OH; thioether N-14),10.3 nM
9,Cc1cccc(C[C@@H]2NC(=O)[C@H](CC(=O)O)NC(=O)[C@H](Cc3ccc(OCC(=O)O)cc3)NC(=O)[C@H](C(C)O)NC(=O)CSC[C@@H](C(=O)N[C@@H](CO)C(=O)NCCOCCOCC(=O)NCCCCCCCCCCC(=O)O)NC(=O)[C@H](CCC(=O)O)NC(=O)[C@H](C(C)(C)O)NC(=O)[C@H](CC3CCCCC3)NC(=O)[C@H](CCN)NC(=O)[C@@H](CC(C)C)NC(=O)[C@H](C)N(C)C(=O)[C@H](Cc3ccc(OCC(=O)O)cc3)NC(=O)[C@H](Cc3ccc(-c4ccccc4)cc3)NC(=O)[C@H](Cc3ccc(OCC(=O)O)cc3)NC2=O)c1 (stereo partly drawn) [Example 2507] ({CH2CO}-[Thr(3ξ)]Y(Carboxymethyl)D[Phe(3-Me)]Y(Carboxymethyl)[Bip]Y(Carboxymethyl)[NMeA][dL][Dab][Cha][Val(3-OH)]ECS[AEEA][Aun]-OH; thioether N-14),393 nM
10,Cc1cccc(C[C@@H]2NC(=O)[C@H](CC(=O)O)NC(=O)[C@H](Cc3ccc(OCC(=O)O)cc3)NC(=O)[C@H](C(C)O)NC(=O)CSC[C@@H](C(=O)N[C@@H](CCN)C(=O)NCCOCCOCC(=O)NCCCCCCCCCCC(=O)O)NC(=O)[C@H](CCC(=O)O)NC(=O)[C@H](C(C)(C)O)NC(=O)[C@H](CC3CCCCC3)NC(=O)[C@H](CCN)NC(=O)[C@@H](CC(C)C)NC(=O)[C@H](C)N(C)C(=O)[C@H](Cc3ccc(OCC(=O)O)cc3)NC(=O)[C@H](Cc3ccc(-c4ccccc4)cc3)NC(=O)[C@H](Cc3ccc(OCC(=O)O)cc3)NC2=O)c1 (stereo partly drawn) [Example 2508] ({CH2CO}-[Thr(3ξ)]Y(Carboxymethyl)D[Phe(3-Me)]Y(Carboxymethyl)[Bip]Y(Carboxymethyl)[NMeA][dL][Dab][Cha][Val(3-OH)]EC[Dab][AEEA][Aun]-OH; thioether N-14),40.6 nM
11,CCC(C)[C@@H]1NC(=O)[C@H](Cc2ccc(-c3ccccc3)cc2)NC(=O)[C@H](CC(C)C)NC(=O)[C@H](Cc2c[nH]c3ccccc23)NC(=O)[C@H](CC(=O)O)NC(=O)[C@H](Cc2ccc(OCC(=O)O)cc2)NC(=O)[C@H](C(C)O)NC(=O)CSC[C@@H](C(=O)N[C@@H](CCN)C(=O)NCCOCCOCC(=O)NCCCCCCCCCCC(=O)O)NC(=O)[C@H](CCC(=O)O)NC(=O)[C@H](C(C)(C)O)NC(=O)[C@H](CC2CCCCC2)NC(=O)[C@H](CCN)NC(=O)[C@@H](CC(C)C)NC(=O)[C@H](C)N(C)C1=O (stereo partly drawn) [Example 2509] ({CH2CO}-[Thr(3ξ)]Y(Carboxymethyl)DWL[Bip][Ile(3ξ)][NMeA][dL][Dab][Cha][Val(3-OH)]EC[Dab][AEEA][Aun]-OH; thioether N-14),13 nM
12,CCC(C)[C@@H]1NC(=O)[C@H](Cc2ccc(-c3ccccc3)cc2)NC(=O)[C@H](CC(C)C)NC(=O)[C@H](Cc2c[nH]c3ccccc23)NC(=O)[C@H](CC(=O)O)NC(=O)[C@H](Cc2ccc(OCC(=O)O)cc2)NC(=O)[C@H](Cc2ccsc2)NC(=O)CSC[C@@H](C(=O)N[C@@H](CCN)C(=O)NCCOCCOCC(=O)NCCCCCCCCCCC(=O)O)NC(=O)[C@H](CCC(=O)O)NC(=O)[C@H](C(C)(C)O)NC(=O)[C@H](CC2CCCCC2)NC(=O)[C@H](CCN)NC(=O)[C@@H](CC(C)C)NC(=O)[C@H](C)N(C)C1=O (stereo partly drawn) [Example 2510] ({CH2CO}-[3Thi]Y(Carboxymethyl)DWL[Bip][Ile(3ξ)][NMeA][dL][Dab][Cha][Val(3-OH)]EC[Dab][AEEA][Aun]-OH; thioether N-14),18.1 nM
